Among the test systems are CCRF-CEM leukemia; HCT-116 colon; K-562 leukemia; MALME-3M melanoma; NCI-H23 lung; NCI/ADR-RES ovarian; PC-3 prostate; RPMI-8226 leukemia; TK-10 renal; UACC-257 melanoma.
Holding throughout (test): NCI-60 cell line screen, 48 h

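Briefly, cells in 96-well plates were exposed to five compound concentrations for 48 h, and endpoints were estimated by linear interpolation. GI50 is the concentration that inhibits growth by half. TGI: total growth inhibition.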

As to `O=C(CCl)N1CCN(c2ccccc2)CC1`, the TGI with CCRF-CEM leukemia is above 100 µM; with HCT-116 colon it was 35.5 µM; in the test with K-562 leukemia, above 100 µM; in the test on MALME-3M melanoma it was 42.8 µM; in the test with NCI-H23 lung it was 35.6 µM; with NCI/ADR-RES ovarian it was above 100 µM. For the same compound, the TGI turned out to be 59.4 µM in the test with PC-3 prostate, 85.5 µM with RPMI-8226 leukemia, 34.8 µM in the test on TK-10 renal and 43.6 µM with UACC-257 melanoma.

Regarding `CCNCCS(=O)(=O)NC[C@@]1(c2ccccc2)SC(NC(=O)C(C)(C)C)=NN1C(=O)C(C)(C)C`, the GI50 in the test with CCRF-CEM leukemia is below 0.01 µM; with HCT-116 colon, below 0.01 µM; in the test with K-562 leukemia it was below 0.01 µM; with MALME-3M melanoma, 10.6 µM; with NCI-H23 lung, 0.0282 µM; with NCI/ADR-RES ovarian it was 4.11 µM. The GI50 was below 0.01 µM in the test with PC-3 prostate, below 0.01 µM in the test on RPMI-8226 leukemia, 19.3 µM with TK-10 renal and 11.8 µM in the test with UACC-257 melanoma. For the same compound, the TGI in the test with CCRF-CEM leukemia is above 100 µM; with HCT-116 colon it was above 100 µM; in the test with K-562 leukemia it was above 100 µM; in the test on MALME-3M melanoma it was 30.2 µM; with NCI-H23 lung it was above 100 µM; in the test on NCI/ADR-RES ovarian, above 45.8 µM. The TGI is above 100 µM with PC-3 prostate, above 100 µM in the test with RPMI-8226 leukemia, above 100 µM with TK-10 renal and above 76.9 µM in the test on UACC-257 melanoma.

As to `C=C(CC)C(=O)c1ccc(OCC(=O)O)c(Cl)c1Cl`, the TGI with CCRF-CEM leukemia is above 76.3 µM; with HCT-116 colon, above 55.1 µM; in the test on K-562 leukemia it was above 100 µM; in the test with MALME-3M melanoma, 31.7 µM; with NCI-H23 lung, above 56.2 µM; in the test with NCI/ADR-RES ovarian, above 61.9 µM. The TGI in the test on PC-3 prostate is above 81.8 µM; with RPMI-8226 leukemia, above 100 µM; with TK-10 renal it was 30.2 µM; with UACC-257 melanoma it was 55.4 µM.

Take `O=C1NC(=NCCc2ccccc2F)S/C1=C\c1ccc2ncccc2c1`: the GI50 was 5.05 µM with CCRF-CEM leukemia; 1.27 µM in the test with HCT-116 colon; 2.78 µM in the test with K-562 leukemia; 11.4 µM with MALME-3M melanoma; 6.12 µM in the test on NCI-H23 lung; 9.2 µM in the test with NCI/ADR-RES ovarian. Further, the GI50 was 13.4 µM in the test with PC-3 prostate, 4.18 µM with RPMI-8226 leukemia, 5.13 µM in the test with TK-10 renal and 9.35 µM in the test on UACC-257 melanoma. In addition, the TGI in the test on CCRF-CEM leukemia is above 20.1 µM; in the test on HCT-116 colon, above 25 µM; in the test on K-562 leukemia, above 25 µM; with MALME-3M melanoma, above 25 µM; with NCI-H23 lung it was above 25 µM; in the test on NCI/ADR-RES ovarian, above 25 µM. For the same compound, the TGI with PC-3 prostate is above 25 µM; in the test on RPMI-8226 leukemia it was 24.9 µM; in the test on TK-10 renal, above 25 µM; in the test with UACC-257 melanoma it was above 25 µM.

In the case of `C/C(=N\O)C1CC(CC(=O)O)C1(C)C` (stereo unspecified), the TGI in the test on CCRF-CEM leukemia, in the test with HCT-116 colon, with K-562 leukemia, in the test on MALME-3M melanoma, in the test with NCI-H23 lung and with NCI/ADR-RES ovarian was above 100 µM throughout. Further, the TGI with PC-3 prostate, in the test with RPMI-8226 leukemia, in the test with TK-10 renal and in the test with UACC-257 melanoma was above 100 µM in each case.

Consider `O=C(O)c1cc(-c2ccc(-c3ccccc3)cc2)nc2cc3ccccc3cc12`, for which the TGI with CCRF-CEM leukemia is 39.8 µM; with HCT-116 colon, above 100 µM; in the test with K-562 leukemia it was above 100 µM; in the test on MALME-3M melanoma, above 100 µM; in the test with NCI-H23 lung it was above 100 µM; in the test with NCI/ADR-RES ovarian, above 100 µM. For the same compound, the TGI in the test with PC-3 prostate, in the test on RPMI-8226 leukemia, with TK-10 renal and in the test with UACC-257 melanoma was above 100 µM throughout.

Take `COc1cccc(N2C(=N)/C(=C3\Nc4ccccc4S3)CC2=O)c1`: the GI50 was 1.91 µM in the test with CCRF-CEM leukemia; 6.22 µM in the test on HCT-116 colon; 3.92 µM with K-562 leukemia; above 100 µM in the test on MALME-3M melanoma; 39.4 µM in the test on NCI-H23 lung; 15.8 µM with NCI/ADR-RES ovarian. Further, the GI50 in the test on PC-3 prostate is 3.03 µM; in the test on RPMI-8226 leukemia it was 2.73 µM; with TK-10 renal, 17.8 µM; in the test with UACC-257 melanoma it was above 100 µM. In addition, the TGI in the test with CCRF-CEM leukemia, in the test on HCT-116 colon, with K-562 leukemia, with MALME-3M melanoma, with NCI-H23 lung and in the test on NCI/ADR-RES ovarian was above 100 µM each time. The TGI with PC-3 prostate, in the test on RPMI-8226 leukemia, with TK-10 renal and in the test on UACC-257 melanoma was above 100 µM each time.

Turning to `COc1ccc(/C=C/C(=O)C(=O)/C=C/c2ccc(OC)c(OC)c2)cc1OC`, the GI50 in the test on CCRF-CEM leukemia was 2.22 µM; in the test on HCT-116 colon, 0.319 µM; with K-562 leukemia, 1.07 µM; in the test with MALME-3M melanoma, 5.77 µM; in the test with NCI-H23 lung, 2.99 µM; in the test with NCI/ADR-RES ovarian it was 4.2 µM. The values for the GI50 in the test on PC-3 prostate, with RPMI-8226 leukemia and in the test on TK-10 renal were 3.3 µM, 0.389 µM and 3.83 µM, respectively. In addition, the TGI with CCRF-CEM leukemia was 20 µM; in the test with HCT-116 colon, 1.33 µM; with K-562 leukemia, above 100 µM; in the test on MALME-3M melanoma, 78.8 µM; in the test with NCI-H23 lung, above 100 µM; with NCI/ADR-RES ovarian it was above 100 µM. In addition, the TGI in the test on PC-3 prostate was above 100 µM; in the test with RPMI-8226 leukemia, 2.33 µM; in the test on TK-10 renal, 25 µM.

Take `CCOC(=O)C(Cc1ccccc1)n1c(O)c(/C=N/c2ncc(Cc3ccc(Cl)cc3Cl)s2)sc1=S` (stereo unspecified): the GI50 was 1.87 µM in the test on CCRF-CEM leukemia; 2.03 µM in the test with HCT-116 colon; 2.03 µM in the test with K-562 leukemia; 2.77 µM in the test with MALME-3M melanoma; 1.9 µM in the test with NCI-H23 lung; 2.56 µM in the test with NCI/ADR-RES ovarian. Further, the GI50 in the test with PC-3 prostate was 2.08 µM; with RPMI-8226 leukemia, 2.12 µM; with UACC-257 melanoma, 2.72 µM. Besides, the TGI in the test on CCRF-CEM leukemia is above 100 µM; in the test with HCT-116 colon, 11.5 µM; with K-562 leukemia it was above 100 µM; with MALME-3M melanoma it was 9.25 µM; in the test on NCI-H23 lung, 12.4 µM; in the test on NCI/ADR-RES ovarian it was 15.1 µM. The TGI in the test on PC-3 prostate is above 100 µM; in the test with RPMI-8226 leukemia it was above 100 µM; in the test with UACC-257 melanoma, 8.57 µM.

(Values after PubChem BioAssay (NCI).)
